In general, IC50 refers to the concentration at which inhibition is half-maximal. A high value points to a need for much substance.

For one data set, the system named is human cells Kasumi. Nature of the data set: MTT cytotoxicity assay, Kasumi. Format: cell-based. The following applies: 24 h. The source says:
(§1) The two human acute lymphoblastic leukemia cells K562 and Kasumi, two human breast adenocarcinoma cells MCF7 and MDA-MB-231, human hepatoma cell HepG-2, human lung adenocarcinoma cell A549, human gastric cancer cell SGC-7901, human colon cancer cell HCT-116, human ovarian cancer cell line SKOV3, or human lung epithelial normal cell 2B were obtained from Beyotime Biotechnology and utilized to test the cytotoxicity of compounds by MTT assays as previous study. The anti-inflammatory effect of the compounds was detected by the influence on the increase in the level of nitric oxide caused by lipopolysaccharide (LPS) based on the classic Griess method. RAW 264.7 cells (Shanghai Institutes for Biological Science) were seeded in 96-well plates and incubated for 24 h. Then, cells were treated with compounds 29, 29a, 31, and 31a (0-80 μM) for 30 min, followed by co-treatment with LPS ([…]) for another 24 h. The Nitric Oxide assay kit with Griess reagents (Beyotime, Lot: S0021, Shanghai, China) was used to examine cellular supernatant nitrite accumulation, which represents cellular NO levels. The OD value of 540 nm absorbance was detected with a microplate reader. Their authentication in the laboratory was performed regularly based on morphology and gene/protein expression. The tested micro-organisms including Gram-negative bacteria E. coli ATCC 35218 and Pseudomonas aeruginosa ATCC 27853, and Gram-positive bacteria Staphylococcus aureus ATCC 29213 and B. subtilis ATCC 6633, and fungi Candida albicans, Rhizoctonia solani and Aspergillus fumigatus were treated with different concentrations of compounds (1 μM, 10 μM, 100 μM) using Bauer-Kirby disk diffusion method to evaluate the antimicrobial activities.
(Formazan colour is commonly taken as a measure of viable cells.)

The test system of data set [1] is human lung adenocarcinoma cell A549. Nature of the data set: MTT cytotoxicity assay, A549. Format: cell-based. The following applies: 24 h.
From the text: as §1

The test system of data set [2] is S. brevitalea DSM 7029 wild type. Nature of the data set: Growth curve of DSM 7029 wild type with compounds (Bioscreen C). The data set is classed as cell-based, Schlegelella brevitalea DSM 7029. The following applies: CYMG medium, compound 0.1 μg/μL, OD600 every hour for 42 h, Bioscreen C. On the procedure: (§2) The growth curve was tested by Bioscreen C (Labsystems, Finland) as follow. Overnight culture was inoculated into 400 μL fresh CYMG medium in the ratio of 1:100 (the concentration of compounds was 0.1 μg/μL) and shook in normal speed. The OD600 value was gained in every hour for 42 h in total. Biofilm formation was measured at 18 h and 36 h respectively, as reported previously. In brief, the free-floating cells were removed, and the microtitre plate was washed with PBS (pH 7.4) after incubation for 18 h and 36 h. The biofilm was stained by adding 200 µL of crystal violet (0.1%) solution. Crystal violet solution was removed after 15 min and 200 µL of ethanol (95%) was added. The absorbance at OD600 was read using a microplate reader (Infinite M200, Tecan, Männedorf, Switzerland). Meanwhile, free-floating cells were used to test the secretion of pigment. The bacteria were removed and the supernatant was measured at OD600.

Data set [3] has the same test system. Nature of the data set: Biofilm formation of DSM 7029 wild type with compounds (crystal violet). The data set is classed as cell-based, Schlegelella brevitalea DSM 7029. Here is the method:
as §2

For data set [4], the system named is human breast adenocarcinoma cells MCF7. The data set can be described thus: cells. The data set is classed as cell-based. The following applies: 24 h.
From the text: as §1

The test system of data set [5] is human breast adenocarcinoma cells MDA-MB-231. Nature of the data set: cells. Format: cell-based. The following applies: 24 h.
From the text: as §1

Data set [6] concerns human lung epithelial normal cell 2B. The data set can be described thus: cells. Format: cell-based. The following applies: 24 h.
From the text: as §1

The test system of data set [7] is human gastric cancer cell SGC-7901. Nature of the data set: cells. The data set is classed as cell-based. The following applies: 24 h.
From the text: as §1

The subject of data set [8] is human colon cancer cell HCT-116. The data set can be described thus: cells. The data set is classed as cell-based. The following applies: 24 h.
From the text: as §1

Data set [9] deals with human acute lymphoblastic leukemia cells K562. The data set can be described thus: cells. Format: cell-based. The following applies: 24 h.
From the text: as §1

Data set [10] deals with human hepatoma cell HepG-2. The data set can be described thus: cells. The data set is classed as cell-based. The following applies: 24 h.
From the text: as §1

The next data set concerns tumor lines. The data set can be described thus: MTT cytotoxicity assay, statements on the whole panel. Format: cell-based, human. The following applies: MTT assay, panel of tumor cell lines.
From the text: as §1

Data set [11] concerns A1 domain of CsA1T1 (GdnA). Nature of the data set: Adenylation activity of A1 domain (ATP/PPi exchange, pyrophosphate production assay). The following applies: for relative activity of A1 domain for the activation of amino acids, Average: CsA1T1 1 μM, 10 mM amino acid, 2.5 mM ATP, pH 7.6, A360, L-Met = 100%, mean of n = 3; for selectivity of A1 domain for amino acids in words: response to reviewers on Supplementary Fig. 6a. Format: biochemical, Schlegelella brevitalea DSM 7029. On the procedure:
For pyrophosphate production assays, the reaction system contains 10 mM amino acid substrates, 2.5 mM ATP (Solarbio), 0.2 mM MESG (Medchemexpress), 1 U/mL purine nucleoside phosphorylase (Shanghai yuanye Bio-Technology Co., Ltd), 0.4 U/mL inorganic pyrophosphatase (Sigma), 150 mM hydroxylamine (Sigma) and 1 μM proteins in 100 μL buffer (50 mM Tris, 300 mM NaCl and 5 mM MgCl2, pH 7.6). The value was read at A360 in a SpectraMax M5 plate reader (Molecular Devices, Sunnyvale, California) in 96 well, clear-bottomed plates (Corning). A360 values were converted to pyrophosphate release, by comparing with a standard curve (KH2PO4 from 2 μM to 128 μM) for known quantities of pyrophosphate.

Non-standard residues stand in square brackets, D forms with d. Residues, ends and D or L forms follow the SMILES beside them. *: point of attachment. dMet(O) = CS(=O)CC[C@@H](N)C(=O)O; Lauroyl = CCCCCCCCCCCC(=O)*; Decanoyl = CCCCCCCCCC(=O)*; NH(CH2)4NH2 = NCCCCN*; For = O=C* A value given as a limit tells only on which side of the number the result lay.

Regarding `CC(C)[C@H](NC(=O)[C@@H]1CCCN1C(=O)[C@@H](CC(N)=O)NC(=O)[C@H](N)CC[S+](C)[O-])C(=O)N[C@H](Cc1ccccc1)C(=O)N1CCC[C@H]1C(=O)N[C@@H](Cc1c[nH]c2ccccc12)C(=O)N[C@@H](C(=O)N[C@@H](C)C(=O)N[C@H](C)C(=O)N[C@@H](CO)C(=O)N[C@@H](C)C(=O)NCCCCN)C(C)C` (stereo partly drawn) [Compound 2, Glidonin B] (H-[dMet(O)][dN]PV[dF]PW[dV]A[dA]SA-{NH(CH2)4NH2}), the IC50 (with human cells Kasumi; in data set [1]; in data set [4]; in data set [5]; in data set [6]; in data set [7]) was greater than 20 µM each time. Further, the IC50 in data set [8], in data set [9] and in [10] was greater than 20 µM throughout. For the same molecule, the “effect on growth of DSM 7029 wild type in words” value in [2] was “no effect”. The “effect on biofilm formation of DSM 7029 wild type in words” value in data set [3] (crystal violet staining) was “less effect on biofilm formation”. Also, the “biofilm formation 18 h, Average” value in [3] (relative to wild type treated with H2O = 100%, crystal violet 0.1%, OD600, mean of n = 3) is recorded as 92.0189%. Moreover, the “biofilm formation 36 h” value in data set [3] (relative to wild type treated with H2O = 100%, crystal violet 0.1%, OD600, replicate 1) stood at 105.006%; in data set [3] (relative to wild type treated with H2O = 100%, crystal violet 0.1%, OD600, replicate 2), 81.9095%; in [3] (relative to wild type treated with H2O = 100%, crystal violet 0.1%, OD600, replicate 3) it was 97.572%.
As to `CSCC[C@@H](NC=O)C(=O)N[C@H](CC(N)=O)C(=O)N1CCC[C@H]1C(=O)N[C@H](C(=O)N[C@H](Cc1ccccc1)C(=O)N1CCC[C@H]1C(=O)N[C@@H](Cc1c[nH]c2ccccc12)C(=O)N[C@@H](C(=O)N[C@@H](C)C(=O)N[C@H](C)C(=O)N[C@@H](CO)C(=O)N[C@@H](C)C(=O)NCCCCN)C(C)C)C(C)C` [Compound 4, Glidonin D] (For-[dM][dN]PV[dF]PW[dV]A[dA]SA-{NH(CH2)4NH2}), the IC50 (with human cells Kasumi; in [1]; in data set [4]; in data set [5]; in [6]; in data set [7]) was greater than 20 µM each time. Also, the concentration for half-maximal inhibition (IC50) in [8], in data set [9] and in data set [10] was greater than 20 µM throughout.
`CCCCCCCCCC(=O)N[C@H](CCSC)C(=O)N[C@H](CC(N)=O)C(=O)N1CCC[C@H]1C(=O)N[C@H](C(=O)N[C@H](Cc1ccccc1)C(=O)N1CCC[C@H]1C(=O)N[C@@H](Cc1c[nH]c2ccccc12)C(=O)N[C@@H](C(=O)N[C@@H](C)C(=O)N[C@H](C)C(=O)N[C@@H](CO)C(=O)N[C@@H](C)C(=O)NCCCCN)C(C)C)C(C)C` [Compound 6, Glidonin F] (Decanoyl-[dM][dN]PV[dF]PW[dV]A[dA]SA-{NH(CH2)4NH2}): the IC50 in [1], in [5], in [6] and in data set [10] was greater than 20 µM in each case.
On to `CCCCCCCCCCCC(=O)N[C@H](CC(C)C)C(=O)N[C@H](CC(N)=O)C(=O)N1CCC[C@H]1C(=O)N[C@H](C(=O)N[C@H](Cc1ccccc1)C(=O)N1CCC[C@H]1C(=O)N[C@@H](Cc1c[nH]c2ccccc12)C(=O)N[C@@H](C(=O)N[C@@H](C)C(=O)N[C@H](C)C(=O)N[C@@H](CO)C(=O)N[C@@H](C)C(=O)NCCCCN)C(C)C)C(C)C` [Compound 9, Glidonin I] (Lauroyl-[dL][dN]PV[dF]PW[dV]A[dA]SA-{NH(CH2)4NH2}), for which the IC50 is 9.65 ± 0.4 µM in the data set on human cells Kasumi; 3.26 µM in data set [1]; greater than 20 µM in [4]; 4.26 µM in data set [5]; 10.4 ± 0.54 µM in data set [6]; greater than 20 µM in data set [7]. Besides, the IC50 in data set [8], in [9] and in [10] was greater than 20 µM throughout. Besides, the “cytotoxic / antitumor activity in words” value in the data set on tumor lines is “broad-spectrum cytotoxicity”.
For `NCC(=O)O` [Gly], in data set [11], the “relative activity of A1 domain for the activation of amino acids, Average” value (shortened to “relative activity of A1 domain”) worked out at 3.896%.
Consider `C[C@H](N)C(=O)O` [L-Ala], for which, in data set [11], the “relative activity of A1 domain” value is on record as 37.8571% and the “selectivity of A1 domain for amino acids in words” value (from here on “selectivity of A1 domain”) is “broad selectivity”.
In the case of `NC(=O)C[C@H](N)C(=O)O` [L-Asn], in data set [11], the “relative activity of A1 domain” value amounted to 8.604%.
On the same count and under the same terms, with `N[C@@H](CS)C(=O)O` [L-Cys] the figure was 4.302%.
In the case of `NC(=O)CC[C@H](N)C(=O)O` [L-Gln], in [11], the “relative activity of A1 domain” value is recorded as 42.7539% and the “selectivity of A1 domain” value is given as “broad selectivity”.
Turning to `N[C@@H](CCC(=O)O)C(=O)O` [L-Glu], in data set [11], the “relative activity of A1 domain” value is given as 43.4238% and the “selectivity of A1 domain” value is “broad selectivity”.
For `N[C@@H](Cc1c[nH]cn1)C(=O)O` [L-His], the “relative activity of A1 domain” value in [11] was 1.516%.
Regarding `CC[C@H](C)[C@H](N)C(=O)O` [L-Ile], in [11], the “relative activity of A1 domain” value was 8.11% and the “selectivity of A1 domain” value is reported as “weaker selectivity”.
In the case of `CC(C)C[C@H](N)C(=O)O` [L-Leu], in data set [11], the “relative activity of A1 domain” value is on record as 48.0078%.
As for `NCCCC[C@H](N)C(=O)O` [L-Lys], in data set [11], the “selectivity of A1 domain” value was “no activity”.
Turning to `C[S+]([O-])CC[C@H](N)C(=O)O` (stereo partly drawn) [L-MetO], in [11], the “relative activity of A1 domain” value is listed as 74.5064%.
Same read-out and setting: with `CSCC[C@H](N)C(=O)O` [L-Met] the figure was 100%.
For the molecule `N[C@@H](Cc1ccccc1)C(=O)O` [L-Phe], in [11], the “relative activity of A1 domain” value is recorded as 16.3434%.
`N[C@@H](CO)C(=O)O` [L-Ser]: the “relative activity of A1 domain” value in data set [11] turned out to be 10.8427%.
On the same count and under the same terms, as for `C[C@@H](O)[C@H](N)C(=O)O` [L-Thr], the figure is 9.697%; as for `N[C@@H](Cc1c[nH]c2ccccc12)C(=O)O` [L-Trp], 8.022%.
Turning to `CC(C)[C@H](N)C(=O)O` [L-Val], in data set [11], the “relative activity of A1 domain” value was 4.884% and the “selectivity of A1 domain” value was “weaker selectivity”.

(Values after PMC10587159, “Biosynthesis and engineering of the nonribosomal peptides with a C-terminal putrescine” (Nature Communications, 2023).)
